Among the data in PubChem BioAssay AID256 (DTP/NCI, 2004) are T/C values, retold here.

The structures appear in SMILES notation. Values joined by “and” are separate entries in the source; they are usually repeats but may differ in a detail not shown here. Equal entries are not always repeated. Toxic doses and inconclusive results are not listed.

This assay relates to CD2F1 mice, L1210 leukemia ip, survival T/C. Kind of assay: NCI In Vivo Anticancer Drug Screen. Data for tumor model L1210 Leukemia (intraperitoneal) in CD2F1 (CDF1) mice. The note with it: endpoint: mean survival time, higher = longer survival. A digest of the protocol:
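Each value reflects a quotient of treated over vehicle control outcomes in mice with a transplanted tumor.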

The mark [1] stands for this setting: dose: 100.0 mg/kg/injection, schedule: Q04DX003 (ip), vehicle: saline with Tween-80.
[2] abbreviates: dose: 200.0 mg/kg/injection, schedule: Q04DX003 (ip), vehicle: saline with Tween-80.
The mark [3] stands for this setting: dose: 100.0 mg/kg/injection, schedule: Q01DX009 (ip), vehicle: saline with Tween-80.
Where [4] appears, read: dose: 200.0 mg/kg/injection, schedule: Q01DX009 (ip), vehicle: saline with Tween-80.
Where [5] appears, read: dose: 400.0 mg/kg/injection, schedule: Q04DX003 (ip), vehicle: saline with Tween-80.

As for `CC1CCC=C2C(=O)C3OC3C(C(C)(C)O)C21C` (stereo unspecified), the T/C is 93 % of control (dose: 100.0 mg/kg/injection, schedule: Q04DX003 (ip), vehicle: acetone); 88 % of control (dose: 200.0 mg/kg/injection, schedule: Q04DX003 (ip), vehicle: acetone); 88 % of control (dose: 400.0 mg/kg/injection, schedule: Q04DX003 (ip), vehicle: acetone).

In the case of `C1CCC2C[N-]CCC2C1.C1CCC2C[N-]CCC2C1.C1CCC2C[N-]CCC2C1.C1CCC2C[N-]CCC2C1.[I][Fe][I]` (stereo unspecified), the T/C is 108 % of control under setting [1] and 106 % of control under setting [2].

In the case of `COC(=O)C(NC(=O)OCc1ccccc1)C(=O)OC`, the T/C was 105 % of control under setting [3]; 107 % of control under setting [4]; 112 % of control (dose: 400.0 mg/kg/injection, schedule: Q01DX009 (ip), vehicle: saline with Tween-80).

Regarding `CC(=O)OCC1OC(n2cnc(N)nc2=O)C(OC(C)=O)C1OC(C)=O` (stereo unspecified), the T/C is, setting by setting: (dose: 1.56 mg/kg/injection, schedule: Q01DX009 (ip), vehicle: saline) 121 % of control; (dose: 3.12 mg/kg/injection, schedule: Q01DX009 (ip), vehicle: saline) 158 % of control; (dose: 6.25 mg/kg/injection, schedule: Q01DX009 (ip), vehicle: saline) 161 % of control; (dose: 12.5 mg/kg/injection, schedule: Q01DX009 (ip), vehicle: saline) 169 % of control; (dose: 25.0 mg/kg/injection, schedule: Q01DX009 (ip), vehicle: saline) 110 % of control and 111 % of control.

Consider `CCOC1(C)OC2C(CO)OC(n3ccc4c(N)ncnc43)C2O1` (stereo unspecified), for which the T/C (dose: 100.0 mg/kg/injection, schedule: Q01DX001 (ip), vehicle: saline) is 111 % of control.

In the case of `COC(=O)NC1=C(N2CC2)C(=O)C(NC(=O)OC)=C(N2CC2)C1=O`, the T/C was 154 % of control (dose: 0.75 mg/kg/injection, schedule: Q01DX009 (ip), vehicle: saline) and 175 % of control (dose: 1.5 mg/kg/injection, schedule: Q01DX009 (ip), vehicle: saline).

For `O=c1[nH]c(=O)n2c3c1nnn3CC1OC2C(O)C1O` (stereo unspecified), the T/C by setting is: (dose: 12.5 mg/kg/injection, schedule: Q01DX005 (ip), vehicle: water) 93 % of control; (dose: 25.0 mg/kg/injection, schedule: Q01DX005 (ip), vehicle: water) 93 % of control; (dose: 50.0 mg/kg/injection, schedule: Q01DX005 (ip), vehicle: water) 95 % of control; (dose: 100.0 mg/kg/injection, schedule: Q01DX005 (ip), vehicle: water) 89 % of control; (dose: 200.0 mg/kg/injection, schedule: Q01DX005 (ip), vehicle: water) 95 % of control.

Turning to `C/C(=C/C(C)(C)C)C1CCCCC1C` (stereo unspecified), the T/C (dose: 50.0 mg/kg/injection, schedule: Q01DX009 (ip), vehicle: saline with Tween-80) was 100 % of control; the T/C under setting [3] was 100 % of control; the T/C under setting [4] is 116 % of control.

Consider `Nc1nc(N)c2c(n1)NCN(Cc1ccc(Cl)c(Cl)c1)C2`, for which the T/C is 102 % of control (dose: 0.75 mg/kg/injection, schedule: Q01DX009 (ip), vehicle: water); 98 % of control (dose: 1.5 mg/kg/injection, schedule: Q01DX009 (ip), vehicle: water); 102 % of control (dose: 3.0 mg/kg/injection, schedule: Q01DX009 (ip), vehicle: water); 102 % of control (dose: 6.0 mg/kg/injection, schedule: Q01DX009 (ip), vehicle: water); 100 % of control (dose: 12.0 mg/kg/injection, schedule: Q01DX009 (ip), vehicle: water); 102 % of control (dose: 24.0 mg/kg/injection, schedule: Q01DX009 (ip), vehicle: water). In addition, where the note is “dose: 50.0 mg/kg/injection, schedule: Q01DX009 (ip), vehicle: water”, the T/C is 94 % of control.

Take `C=CCSc1nc(N)nc2nc[nH]c12`: the T/C (dose: 100.0 mg/kg/injection, schedule: Q04DX003 (ip), vehicle: saline sonified) was 107 % of control and the T/C (dose: 200.0 mg/kg/injection, schedule: Q04DX003 (ip), vehicle: saline sonified) is 96 % of control.

On to `O=[N+]([O-])c1ccc2nocc2c1`, for which the T/C (dose: 25.0 mg/kg/injection, schedule: Q04DX003 (ip), vehicle: Klucel (hydroxypropylcellulose) (HPC)) is 105 % of control; the T/C (dose: 50.0 mg/kg/injection, schedule: Q04DX003 (ip), vehicle: Klucel (hydroxypropylcellulose) (HPC)) is 97 % of control; the T/C (dose: 100.0 mg/kg/injection, schedule: Q04DX003 (ip), vehicle: Klucel (hydroxypropylcellulose) (HPC)) was 101 % of control.

With `c1ccc2nc3c4ccccc4c4ccccc4c3nc2c1`, the T/C is, setting by setting: (dose: 100.0 mg/kg/injection, schedule: Q04DX002 (ip), vehicle: Klucel (hydroxypropylcellulose) (HPC)) 97 % of control; (dose: 200.0 mg/kg/injection, schedule: Q04DX002 (ip), vehicle: Klucel (hydroxypropylcellulose) (HPC)) 97 % of control; (dose: 400.0 mg/kg/injection, schedule: Q04DX002 (ip), vehicle: Klucel (hydroxypropylcellulose) (HPC)) 97 % of control.

For the compound `O=C1OC(=O)c2c1ccc1ccc(Cl)cc21`, the T/C is 102 % of control under setting [3] and 96 % of control under setting [4].

Regarding `OCC(F)(F)F`, the T/C by setting is: (dose: 100.0 mg/kg/injection, schedule: Q01DX009 (ip), vehicle: saline) 123 % of control; under setting [1], 108 % of control; under setting [2], 110 % of control; under setting [5], 115 % of control.

As for `Cn1c(CC(O)(C(F)(F)Cl)C(F)(F)Cl)cc(=O)n1-c1ccccc1`, the T/C (dose: 50.0 mg/kg/injection, schedule: Q04DX003 (ip), vehicle: saline with Tween-80) was 101 % of control; the T/C under setting [3] is 97 % of control; the T/C under setting [1] was 97 % of control; the T/C under setting [4] is 97 % of control; the T/C under setting [2] was 97 % of control; the T/C under setting [5] is 92 % of control.

On to `Cc1ccc(-c2cc(O)cc(-c3ccc(C)cc3C)c2O)c(C)c1`, for which, for the setting “dose: 400.0 mg/kg/injection, schedule: Q01DX001 (ip), vehicle: saline with Tween-80”, the T/C is 91 % of control.

Regarding `O=C(C=P(c1ccccc1)(c1ccccc1)c1ccccc1)c1ccc([N+](=O)[O-])cc1`, the T/C was 90 % of control (dose: 50.0 mg/kg/injection, schedule: Q01DX001 (ip), vehicle: Klucel (hydroxypropylcellulose) (HPC)); 94 % of control (dose: 100.0 mg/kg/injection, schedule: Q01DX001 (ip), vehicle: Klucel (hydroxypropylcellulose) (HPC)); 102 % of control (dose: 200.0 mg/kg/injection, schedule: Q01DX001 (ip), vehicle: Klucel (hydroxypropylcellulose) (HPC)); 93 % of control (dose: 400.0 mg/kg/injection, schedule: Q01DX001 (ip), vehicle: Klucel (hydroxypropylcellulose) (HPC)).
